Data from the supplement of paper PMC5908809.

Experiments:
NKL (IL-2 2.5 ng/mL) [1] = assay: drug sensitivity score (DSS) (DSS units); higher = more sensitive; extreme values may be limits of the assay; conditions: 72 h
[2] = tested on: normal primary NK cells, pool 2 (3 donors) (IL-2 2.5 ng/mL); assay: as above; conditions: 72 h
NK-92 (IL-2 2.5 ng/mL) [3] = assay: as above; conditions: 72 h
DERL-7 (IL-2 2.5 ng/mL) [4] = assay: as above; conditions: 72 h
[5] = tested on: normal primary NK cells, pool 1 (3 donors), resting (IL-2 0 ng/mL); assay: as above; conditions: 72 h
[6] = tested on: normal primary NK cells, pool 1 (3 donors) (IL-2 2.5 ng/mL); assay: as above; conditions: 72 h
YT (IL-2 2.5 ng/mL) [7] = assay: as above; conditions: 72 h
NK-YS (IL-2 2.5 ng/mL) [8] = assay: as above; conditions: 72 h
SNK-6 (IL-2 2.5 ng/mL) [9] = assay: as above; conditions: 72 h
IMC-1 (IL-2 20 ng/mL) [10] = assay: as above; conditions: 72 h
KAI3 (IL-2 2.5 ng/mL) [11] = assay: as above; conditions: 72 h
KHYG-1 (IL-2 2.5 ng/mL) [12] = assay: as above; conditions: 72 h
[13] = tested on: normal primary NK cells, pool 3 (3 donors) (IL-2 2.5 ng/mL); assay: as above; conditions: 72 h
[14] = tested on: normal NK cells expanded with K562-aAPC; assay: as above; conditions: 72 h; IL-2 2.5 ng/mL
Protocol: (§1)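 Drug sensitivity and resistance testing on K562-aAPC-expanded normal NK cells: 5 concentrations (10-fold steps over a 10,000-fold range), 72 h at 37 °C, viability by CellTiter-Glo normalised to DMSO and benzethonium chloride controls; DSS from the fitted curve.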

NKL (IL-2 2.5 ng/mL) [15] = assay: percent inhibition of viability; higher = more inhibition; conditions: 72 h
[16] = tested on: normal primary NK cells, pool 2 (3 donors) (IL-2 2.5 ng/mL); assay: as above; conditions: 72 h
NK-92 (IL-2 2.5 ng/mL) [17] = assay: as above; conditions: 72 h
DERL-7 (IL-2 2.5 ng/mL) [18] = assay: as above; conditions: 72 h
[19] = tested on: normal primary NK cells, pool 1 (3 donors), resting (IL-2 0 ng/mL); assay: as above; conditions: 72 h
[20] = tested on: normal primary NK cells, pool 1 (3 donors) (IL-2 2.5 ng/mL); assay: as above; conditions: 72 h
YT (IL-2 2.5 ng/mL) [21] = assay: as above; conditions: 72 h
NK-YS (IL-2 2.5 ng/mL) [22] = assay: as above; conditions: 72 h
SNK-6 (IL-2 2.5 ng/mL) [23] = assay: as above; conditions: 72 h
IMC-1 (IL-2 20 ng/mL) [24] = assay: as above; conditions: 72 h
KAI3 (IL-2 2.5 ng/mL) [25] = assay: as above; conditions: 72 h
KHYG-1 (IL-2 2.5 ng/mL) [26] = assay: as above; conditions: 72 h
[27] = tested on: normal primary NK cells, pool 3 (3 donors) (IL-2 2.5 ng/mL); assay: as above; conditions: 72 h
[28] = tested on: normal NK cells expanded with K562-aAPC; assay: as above; conditions: 72 h, IL-2 2.5 ng/mL
Protocol: as §1

CN(C)C[C@@H]1CCn2cc(c3ccccc32)C2=C(C(=O)NC2=O)c2cn(c3ccccc23)CCO1 [Ruboxistaurin] (max concentration tested 10000 nM)
Conditions | drug sensitivity score
DERL-7 (IL-2 2.5 ng/mL) [4] | 10.5
IMC-1 (IL-2 20 ng/mL) [10] | 4.21
KAI3 (IL-2 2.5 ng/mL) [11] | 8.93
KHYG-1 (IL-2 2.5 ng/mL) [12] | 10.2
NK-92 (IL-2 2.5 ng/mL) [3] | 5.89
NK-YS (IL-2 2.5 ng/mL) [8] | 9.16
NKL (IL-2 2.5 ng/mL) [1] | 9.73
SNK-6 (IL-2 2.5 ng/mL) [9] | 6.19
YT (IL-2 2.5 ng/mL) [7] | 6.1
[2] | 7.72
[5] | 11.2
[6] | 9.78
[13] | 7.99
[14] | 9.52

percent inhibition of viability [%]
Conditions | 1 nM | 10 nM | 100 nM | 1000 nM | 10000 nM
DERL-7 (IL-2 2.5 ng/mL) [18] | -1.56 | 1.57 | 18.1 | 40.6 | 99.9
IMC-1 (IL-2 20 ng/mL) [24] | -5.42 | -4.44 | -4.88 | -32.9 | 100
KAI3 (IL-2 2.5 ng/mL) [25] | 0.82 | 1.03 | 11.8 | 32 | 93.8
KHYG-1 (IL-2 2.5 ng/mL) [26] | 1.18 | 0.63 | 1.33 | 34 | 98.9
NK-92 (IL-2 2.5 ng/mL) [17] | -3.12 | -11.3 | -3.13 | 2.96 | 98.9
NK-YS (IL-2 2.5 ng/mL) [22] | 0.95 | -3.62 | 0.25 | 24.6 | 97.6
NKL (IL-2 2.5 ng/mL) [15] | -0.55 | -7.15 | 3.58 | 36.2 | 93.1
SNK-6 (IL-2 2.5 ng/mL) [23] | -9.54 | 1.49 | -3.03 | 4.61 | 99.9
YT (IL-2 2.5 ng/mL) [21] | 0.39 | 0.99 | -3.02 | 5.34 | 96
[16] | -17.6 | -5.86 | -4.21 | 13.1 | 100
[19] | -16.4 | -10.1 | -8.8 | 45.3 | 99.1
[20] | -7.03 | -9.34 | 0.45 | 29 | 99.8
[27] | -10.5 | -8.66 | 0.81 | 14.8 | 99.8
[28] | -0.21 | -2.52 | 9.41 | 31.6 | 99.7

CNC(=O)c1cc(Oc2ccc(NC(=O)Nc3ccc(Cl)c(C(F)(F)F)c3)cc2)ccn1 [Sorafenib] (max concentration tested 1000 nM)
Conditions | drug sensitivity score
DERL-7 (IL-2 2.5 ng/mL) [4] | 1.11
IMC-1 (IL-2 20 ng/mL) [10] | 0
KAI3 (IL-2 2.5 ng/mL) [11] | 0
KHYG-1 (IL-2 2.5 ng/mL) [12] | 0
NK-92 (IL-2 2.5 ng/mL) [3] | 0.73
NK-YS (IL-2 2.5 ng/mL) [8] | 0
NKL (IL-2 2.5 ng/mL) [1] | 0
SNK-6 (IL-2 2.5 ng/mL) [9] | 3.94
YT (IL-2 2.5 ng/mL) [7] | 0
[2] | 0
[5] | 1.53
[6] | 0
[13] | 0
[14] | 0

percent inhibition of viability [%]
Conditions | 0.1 nM | 1 nM | 10 nM | 100 nM | 1000 nM
DERL-7 (IL-2 2.5 ng/mL) [18] | -14.3 | 2.59 | 4.15 | 1.1 | 25.2
IMC-1 (IL-2 20 ng/mL) [24] | -6.25 | -2.7 | -8.4 | -3.64 | -1.65
KAI3 (IL-2 2.5 ng/mL) [25] | 2.87 | 5.97 | 0.72 | 2.84 | -4.41
KHYG-1 (IL-2 2.5 ng/mL) [26] | -1.09 | 0 | -1.1 | 2.71 | -0.82
NK-92 (IL-2 2.5 ng/mL) [17] | -2.2 | -1.4 | -3.13 | -5.91 | 25.7
NK-YS (IL-2 2.5 ng/mL) [22] | -0.65 | -1.62 | -0.99 | 3.14 | 5.95
NKL (IL-2 2.5 ng/mL) [15] | -18.1 | -17.9 | -14.8 | -9.31 | -11.3
SNK-6 (IL-2 2.5 ng/mL) [23] | 9.25 | 14.7 | 5.19 | 17.7 | 30.7
YT (IL-2 2.5 ng/mL) [21] | -0.23 | -2.47 | 0.91 | 1.22 | 3.17
[16] | -8.52 | -3.3 | -11.4 | -7 | -14.1
[19] | -6.78 | -15.6 | 0.71 | 9.47 | 20.5
[20] | -10 | -8.22 | -3.22 | -10.4 | -2.85
[27] | -4.53 | -9.01 | -3.28 | -8.55 | -2.67
[28] | -0.62 | -4.84 | 0.63 | -4.73 | -7.05

CCC1=C[C@@H]2CN(C1)Cc1c([nH]c3ccccc13)[C@@](C(=O)OC)(c1cc3c(cc1OC)N(C)[C@H]1[C@@](O)(C(=O)OC)[C@H](OC(C)=O)[C@]4(CC)C=CCN5CC[C@]31[C@@H]54)C2 [Vinorelbine] (max concentration tested 10000 nM)
Conditions | drug sensitivity score
DERL-7 (IL-2 2.5 ng/mL) [4] | 40.4
IMC-1 (IL-2 20 ng/mL) [10] | 42.8
KAI3 (IL-2 2.5 ng/mL) [11] | 27.1
KHYG-1 (IL-2 2.5 ng/mL) [12] | 37.3
NK-92 (IL-2 2.5 ng/mL) [3] | 31.6
NK-YS (IL-2 2.5 ng/mL) [8] | 33.5
NKL (IL-2 2.5 ng/mL) [1] | 39.5
SNK-6 (IL-2 2.5 ng/mL) [9] | 40.6
YT (IL-2 2.5 ng/mL) [7] | 38.2
[2] | 3.94
[5] | 7.49
[6] | 2.8
[13] | 4.42
[14] | 20.7

percent inhibition of viability [%]
Conditions | 1 nM | 10 nM | 100 nM | 1000 nM | 10000 nM
DERL-7 (IL-2 2.5 ng/mL) [18] | -3.93 | 85.2 | 98.5 | 98.5 | 100
IMC-1 (IL-2 20 ng/mL) [24] | -0.83 | 99.3 | 99.7 | 100 | 101
KAI3 (IL-2 2.5 ng/mL) [25] | -0.08 | 44.9 | 58.9 | 70.4 | 70.2
KHYG-1 (IL-2 2.5 ng/mL) [26] | 2.76 | 57.8 | 97.2 | 103 | 105
NK-92 (IL-2 2.5 ng/mL) [17] | -12.5 | 23.4 | 88.8 | 98.5 | 102
NK-YS (IL-2 2.5 ng/mL) [22] | 10.7 | 66.4 | 64.9 | 84.2 | 90
NKL (IL-2 2.5 ng/mL) [15] | 3.63 | 84.8 | 93.6 | 93.9 | 93.2
SNK-6 (IL-2 2.5 ng/mL) [23] | 22.5 | 78.3 | 84.4 | 96.7 | 96.5
YT (IL-2 2.5 ng/mL) [21] | 0.44 | 65.8 | 95.2 | 98.7 | 100
[16] | -13.5 | 0.55 | 18.7 | 12.3 | 39.7
[19] | -1.44 | -3.84 | -0.59 | 21.5 | 76.9
[20] | -4.33 | -2.37 | -0.15 | 4.78 | 40.3
[27] | -16.2 | -7.94 | 14.5 | 19.8 | 32.1
[28] | 1.8 | 11.8 | 57.4 | 59.7 | 79
